“And” between values parts separate entries of the source, which are not always exact repeats. Equal values may be shown once. Read-outs that look alike come from different tables or passages of the source. Peptide text beside a SMILES is read from it.
Assays:
[1] = tested on: HSV2 clinical isolates; type: cell-based, Human herpes simplex virus type 2
Method: Plaque assays were performed. The methodology was as described in previous Examples for HSV1 plaque assays (including usage of Vero cells) except HSV2 clinical isolates (provided by Prof. Anthony Hart of Liverpool University) were employed instead.

[2] = tested on: HSV1; type: cell-based, Human herpes simplex virus type 1
Procedure, shortened: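 Plaque reduction in Vero monolayers: ~100 pfu HSV1 pre-mixed 10 min at 37 °C with acetylated/amidated peptides in 0.5% FCS medium, inoculated 60–80 min, then carboxymethylcellulose overlay for 22 or 40 h. Plaques counted after fixing and carbol fuchsin staining; IC50 from % of control versus peptide concentration.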

[3] = tested on: HSV2; experiment: HSV2 plaque formation in HEp-2 cells (Example 1); type: cell-based, Human herpes simplex virus type 2; settings: for HSV2 plaque formation in HEp-2 cells, plaque count, wells 1-4: 1 hour; for HSV2 plaque formation in HEp-2 cells, Mean ± sd: untreated 152 ± 10.7
Method: FIG. 2 and table 2 show typical results for the test for anti-HSV2 activity. The assay was carried out as for the anti-HSV1 assay, except Hep-2 cells were used rather than Vero cells. ApoE141-149dp produced a 50% reduction in plaque number at a concentration of around 20 μM. Again note that the peptide was only present in the experimental system for 1 hour.

[4] = tested on: HSV1; experiment: HSV1 plaque formation in Vero cells (Example 1); type: cell-based, Human herpes simplex virus type 1; settings: for HSV1 plaque formation in Vero cells, plaque count, wells 1-4: 1 hour; for HSV1 plaque formation in Vero cells, Mean ± sd: untreated 107 ± 14.2
Method: FIG. 1 and table 1 show typical results for the test for anti-HSV1 activity. The assay involved treating confluent Vero cells in 24-well plates with medium containing virus and varying amounts of peptide for one hour, followed by removal of this inoculum, and addition of viscous ‘overlay’ medium, containing 0.2% high viscosity carboxymethylcellulose. The overlay medium only allows infection of those cells immediately adjacent to an infected cell. After 2 days incubation and then fixation and staining, small patches of infected cells (or ‘plaques’) are visible, which are counted. Each of these corresponds to the infection of a single cell during the one hour inoculation. ApoE141-149dp produced a 40% reduction in plaque number at a concentration of around 20 μM. Note the peptide was only present in the experimental system for 1 hour.

[5] = tested on: HIV-1
Method: The assay was carried out by incubating HIV infected U937 cells in the presence of various levels of peptide for 7 days, followed by assay for levels of the HIV protein p24 in the cells using an Enzyme Linked Immunoabsorbant Assay (ELISA) technique.

[6] = peptide 10 μM in virus inoculum
[7] = peptide 20 μM in virus inoculum
[8] = peptide 30 μM in virus inoculum
[9] = peptide 40 μM in virus inoculum
[10] = peptide 30 μM, U937 cells, 7 days
[11] = peptide 50 μM, U937 cells, 7 days

CC(=O)N[C@@H](Cc1c[nH]c2ccccc12)C(=O)N[C@@H](CCCNC(=N)N)C(=O)N[C@@H](CCCCN)C(=O)N[C@@H](Cc1c[nH]c2ccccc12)C(=O)N[C@@H](CCCNC(=N)N)C(=O)N[C@@H](CCCCN)C(=O)N[C@@H](CCCNC(=N)N)C(=O)N[C@@H](Cc1c[nH]c2ccccc12)C(=O)N[C@@H](CCCNC(=N)N)C(=O)N[C@@H](CCCCN)C(=O)N[C@@H](Cc1c[nH]c2ccccc12)C(=O)N[C@@H](CCCNC(=N)N)C(=O)N[C@@H](CCCCN)C(=O)N[C@@H](CCCNC(=N)N)C(=O)N[C@@H](Cc1c[nH]c2ccccc12)C(N)=O [MU 59] (Ac-WRKWRKRWRKWRKRW-NH2)
IC50 [1]: 10 µM
IC50 [2]: 9.75 µM

ApoE263-286: apoE263-286 peptide tested alongside apoE141-149dp in Example 1 (SWFEPLVEDMQRQWAGLVEKVQAA; UniProt P02649 281-304, looked up, fragment) [reference compound]
HSV2 plaque formation in HEp-2 cells, plaque count, wells 1-4 ([3]; peptide 5 μM in virus inoculum): 135 and 160 and 161 and 152
HSV2 plaque formation in HEp-2 cells, Mean ± sd ([3]; peptide 5 μM): 152 ± 12.0
HSV2 plaque formation in HEp-2 cells, plaque count, wells 1-4 [3, 6]: 157 and 121 and 151 and 134
HSV2 plaque formation in HEp-2 cells, Mean ± sd ([3]; peptide 10 μM): 141 ± 16.1
HSV2 plaque formation in HEp-2 cells, plaque count, wells 1-4 [3, 7]: 118 and 150 and 182 and 134
HSV2 plaque formation in HEp-2 cells, Mean ± sd ([3]; peptide 20 μM): 146 ± 27.3
HSV2 plaque formation in HEp-2 cells, plaque count, wells 1-4 [3, 8]: 118 and 117 and 103 and 159
HSV2 plaque formation in HEp-2 cells, Mean ± sd ([3]; peptide 30 μM): 124 ± 24.2
HSV2 plaque formation in HEp-2 cells, plaque count, wells 1-4 [3, 9]: 132 and 144 and 125 and 124
HSV2 plaque formation in HEp-2 cells, Mean ± sd ([3]; peptide 40 μM): 131 ± 24.2
HSV1 plaque formation in Vero cells, plaque count, wells 1-4 ([4]; peptide 5 μM in virus inoculum): 113 and 119 and 122 and 126
HSV1 plaque formation in Vero cells, Mean ± sd ([4]; peptide 5 μM): 120 ± 5.5
HSV1 plaque formation in Vero cells, plaque count, wells 1-4 [4, 6]: 116 and 124 and 102
HSV1 plaque formation in Vero cells, Mean ± sd ([4]; peptide 10 μM): 114 ± 11.1
HSV1 plaque formation in Vero cells, plaque count, wells 1-4 [4, 7]: 148 and 112 and 133 and 114
HSV1 plaque formation in Vero cells, Mean ± sd ([4]; peptide 20 μM): 127 ± 17.0
HSV1 plaque formation in Vero cells, plaque count, wells 1-4 [4, 8]: 134 and 109 and 114 and 125
HSV1 plaque formation in Vero cells, Mean ± sd ([4]; peptide 30 μM): 121 ± 11.2
HSV1 plaque formation in Vero cells, plaque count, wells 1-4 [4, 9]: 120 and 113 and 125 and 144
HSV1 plaque formation in Vero cells, Mean ± sd ([4]; peptide 40 μM): 126 ± 11.2
activity against HIV, significance by ANOVA (in words) ([5]; FIG. 3, acutely infected U937 cells): did not reach significance
reduction in infectivity (HIV) ([5]; at 20 μM, U937 cells, 7 days): 20%
% Decrease in HIV p24 Production, Mean ± sd ([5]; peptide 10 μM, U937 cells, 7 days): 23.21 ± 12.79%
% Decrease in HIV p24 Production, Mean ± sd ([5]; peptide 20 μM, U937 cells, 7 days): 22.77 ± 13.07%
% Decrease in HIV p24 Production, Exp. 1-3 [5, 10]: 37.94% and 27.83% and 41.78%
% Decrease in HIV p24 Production, Mean ± sd [5, 10]: 35.85 ± 7.21%
% Decrease in HIV p24 Production, Mean ± sd ([5]; peptide 40 μM, U937 cells, 7 days): 38.87 ± 12.70%
% Decrease in HIV p24 Production, Exp. 1-3 [5, 11]: 33.36% and 41.45% and 45.66%
% Decrease in HIV p24 Production, Mean ± sd [5, 11]: 40.16 ± 6.25%

CC(=O)N[C@@H](CC(C)C)C(=O)N[C@@H](CCCNC(=N)N)C(=O)N[C@@H](CCCCN)C(=O)N[C@@H](CC(C)C)C(=O)N[C@@H](CCCNC(=N)N)C(=O)N[C@@H](CCCCN)C(=O)N[C@@H](CCCNC(=N)N)C(=O)N[C@@H](CC(C)C)C(=O)N[C@@H](CC(C)C)C(=O)N[C@@H](Cc1c[nH]c2ccccc12)C(=O)N[C@@H](CCCNC(=N)N)C(=O)N[C@@H](CCCCN)C(=O)N[C@@H](Cc1c[nH]c2ccccc12)C(=O)N[C@@H](CCCNC(=N)N)C(=O)N[C@@H](CCCCN)C(=O)N[C@@H](CCCNC(=N)N)C(=O)N[C@@H](CC(C)C)C(=O)N[C@@H](CC(C)C)C(N)=O [MU 113] (Ac-LRKLRKRLLWRKWRKRLL-NH2)
IC50 [1]: 11.8 µM
IC50 [2]: 18.5 µM

Reference: US7691382B2, “Antiviral polypeptides comprising tandem repeats of APOE 141-149 and variants thereof” (priority 2003, dated 2010)
